Measured values: PubChem BioAssay AID2060511 (Molecular Pharmacology Branch, DTP, NCI, 2025)
“And” between values parts separate entries of the source, which are not always exact repeats. Identical values can stand only once.

System: 422866-222-R5-J1-PDC spheroids with HUVEC/MSC, viability
Assay: Anticancer human tumor 422866-222-R5-J1-PDC patient-derived pancreatic adenocarcinoma cell line growth inhibition [GQUAD]
Conditions: for viability, T/C: stronger effect = lower value
Description: DNA G-quadruplex Stabilizer Agents in Combinations in Complex Spheroids
A high-throughput screen of multi-cell type tumor spheroids was designed to identify active combinations of DNA G-quadruplex stabilizer agents and targeted small molecules. Complex spheroids include a stromal component modeled by human endothelial cells (HUVEC) and fibroblasts modeled by human mesenchymal stem cells (MSCs). The concentration ranges selected for each drug and investigational agent were based upon clinically achievable concentrations if the clinical Cmax of the agent was known.
Compounds. The drugs and investigational agents: pidnarulex (CX-5461; NSC782164), APTO-253 (NSC789042), BRACO-19 (NSC847499), peposertib (NSC802822), ceralasertib (NSC780249), elimusertib (NSC800525), camonsertib (NSC841442), AZD-1390 (NSC803789), olaparib (NSC753686), talazoparib (NSC767125), ART-558 (NSC835418), sotorasib (NSC818433), MRTX-1133 (NSC836407), SN-38 (NSC673596), topotecan (NSC609699), etoposide (NSC141540), doxorubicin (NSC123127), gemcitabine (NSC613327), 5-fluorouracil (NSC19893), paclitaxel (NSC125973), vemurafenib (NSC761431), panobinostat (NSC761190), R-306465 (JNJ-16241199; NSC773264), adavosertib (NSC754352), TP-3654 (NSC805149), carboplatin (NSC241240), KSQ-4279 (NSC840948), and staurosporine (NSC755774) were obtained from the National Cancer Institute (NCI) Developmental Therapeutics Program Chemical Repository (34). The FDA-approved anticancer drug set is available from the NCI Developmental Therapeutics Program. […] The stock solutions were prepared in dimethyl sulfoxide (DMSO, Sigma-Aldrich, St. Louis, MO, cat. D2650) at 800-fold the tested concentration and stored at -70 degrees C prior to their use. All drugs and investigational agents were tested over a range starting from a high concentration at or near the clinical Cmax and decreasing in half-log increments. If the clinical Cmax for an agent had not been determined, the highest concentration tested was 10 microM.
2.3 Cell Culture. All cells were maintained in an incubator at 37 degrees C and 5% CO2 with 95% humidity. The PDC lines were cultured according to standard operating procedures established by the NCI PDMR. All PDCs were thawed and cultured in Matrigel-coated flasks prepared with a working solution of 1X Ham's F-12 nutrient mix, without supplementation (Invitrogen, cat. 11765054), 100 U/mL penicillin-streptomycin (Invitrogen, cat. 15140122), and 2.5% Matrigel (Corning Inc., cat. 354248) for the first three passages. The 857933-349-R-J2-PDC line was cultured in 6C/Colon 1B media, which includes advanced DMEM/F-12 (Thermo Fisher Scientific, cat. 12634028), 10 mM HEPES (Thermo Fisher Scientific, cat. 15630080), 1X GlutaMAX supplement (Thermo Fisher Scientific, cat. 35050061), 0.1 mg/mL primocin (InvivoGen, cat. ant-pm-2), 10% defined fetal bovine serum, heat inactivated (HyClone Laboratories Inc., cat. SH30070.03HI), 50% L-WRN conditioned media (ATCC, cat. CRL-3276), 1.25 mM N-Acetyl-L-cysteine (Sigma-Aldrich, cat. A9165), 10 mM nicotinamide (Sigma-Aldrich, cat. N0636), 1X B-27 supplement (Thermo Fisher Scientific, cat. 17504044), 1X N-2 supplement (Thermo Fisher Scientific, cat. 17502048), 10 microM Y-27632 dihydrochloride (Tocris Bioscience, cat. 1254), and 50 ng/mL human EGF recombinant protein (Thermo Fisher Scientific, cat. PHG0311). The 485176-168-R4-J1-PDC line was cultured in Panc media, which includes all 6C/Colon 1B media components plus 100 ng/mL human FGF-10 (Thermo Fisher Scientific, cat. 100-26), 500 nM SB-431542 (Selleckchem, cat. S1067), and gastrin (Tocris, cat. 3006).
[…]
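Note: spheroids exposed to compounds for seven days before reading.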
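Throughout, for viability, T/C: percent viability relative to DMSO vehicle control taken as 100%.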

## COc1cccc2c1C(=O)c1c(O)c3c(c(O)c1C2=O)CC(O)(C(=O)CO)CC3OC1CC(N)C(O)C(C)O1 (stereo not given) + Cc1cnc(CNC(=O)c2c(=O)c3ccc(N4CCCN(C)CC4)nc3n3c2sc2ccccc23)cn1
Curve of first compound, second compound 0.0316 µM
  IC50: 0.983 µM
Curve of first compound, second compound 0.1 µM
  IC50: 0.961 µM
Curve of first compound, second compound 0.316 µM
  IC50: 1.18 µM
Curve of first compound, second compound 1 µM
  IC50: 1.29 µM
Curve of first compound, second compound 3.16 µM
  IC50: 1.4 µM
Curve of first compound, second compound 10 µM
  IC50: 1.11 µM
Second compound 0.0316 µM, first compound 0.0316 µM
  viability, T/C: 100%
Second compound 0.0316 µM, first compound 0.1 µM
  viability, T/C: 65.7%
Second compound 0.0316 µM, first compound 0.316 µM
  viability, T/C: 78.6%
Second compound 0.0316 µM, first compound 1 µM
  viability, T/C: 46.5%
Second compound 0.0316 µM, first compound 3.16 µM
  viability, T/C: 33.9%
Second compound 0.0316 µM, first compound 10 µM
  viability, T/C: 25.7%
Second compound 0.1 µM, first compound 0.0316 µM
  viability, T/C: 89.3%
Second compound 0.1 µM, first compound 0.1 µM
  viability, T/C: 69.5%
Second compound 0.1 µM, first compound 0.316 µM
  viability, T/C: 78.9%
Second compound 0.1 µM, first compound 1 µM
  viability, T/C: 48.7%
Second compound 0.1 µM, first compound 3.16 µM
  viability, T/C: 34.8%
Second compound 0.1 µM, first compound 10 µM
  viability, T/C: 30.1%
Second compound 0.316 µM, first compound 0.0316 µM
  viability, T/C: 83.3%
Second compound 0.316 µM, first compound 0.1 µM
  viability, T/C: 81.8%
Second compound 0.316 µM, first compound 0.316 µM
  viability, T/C: 73%
Second compound 0.316 µM, first compound 1 µM
  viability, T/C: 51.5%
Second compound 0.316 µM, first compound 3.16 µM
  viability, T/C: 37.3%
Second compound 0.316 µM, first compound 10 µM
  viability, T/C: 30%
Second compound 1 µM, first compound 0.0316 µM
  viability, T/C: 73.3%
Second compound 1 µM, first compound 0.1 µM
  viability, T/C: 86.8%
Second compound 1 µM, first compound 0.316 µM
  viability, T/C: 80.1%
Second compound 1 µM, first compound 1 µM
  viability, T/C: 54.8%
Second compound 1 µM, first compound 3.16 µM
  viability, T/C: 33.7%
Second compound 1 µM, first compound 10 µM
  viability, T/C: 29.5%
Second compound 3.16 µM, first compound 0.0316 µM
  viability, T/C: 95.4%
Second compound 3.16 µM, first compound 0.1 µM
  viability, T/C: 80.4%
Second compound 3.16 µM, first compound 0.316 µM
  viability, T/C: 79.2%
Second compound 3.16 µM, first compound 1 µM
  viability, T/C: 54.7%
Second compound 3.16 µM, first compound 3.16 µM
  viability, T/C: 36.5%
Second compound 3.16 µM, first compound 10 µM
  viability, T/C: 34.2%
Second compound 10 µM, first compound 0.0316 µM
  viability, T/C: 74.2%
Second compound 10 µM, first compound 0.1 µM
  viability, T/C: 82.6%
Second compound 10 µM, first compound 0.316 µM
  viability, T/C: 75%
Second compound 10 µM, first compound 1 µM
  viability, T/C: 50.4%
Second compound 10 µM, first compound 3.16 µM
  viability, T/C: 35.6%
Second compound 10 µM, first compound 10 µM
  viability, T/C: 26.7%

## C#Cc1c(F)ccc2cc(O)cc(-c3ncc4c(N5CC6CCC(C5)N6)nc(OCC56CCCN5CC(F)C6)nc4c3F)c12 (stereo not given)
Compound 0.0316 µM
  viability, T/C: 98.8% and 99.8% and 86.7%
Compound 0.1 µM
  viability, T/C: 95.5% and 91.4% and 77.4%
Compound 0.316 µM
  viability, T/C: 94.1% and 82.6% and 77.7%
Compound 1 µM
  viability, T/C: 60.1% and 79% and 57.5%
Compound 3.16 µM
  viability, T/C: 41.3% and 43.9% and 36.5%
Compound 10 µM
  viability, T/C: 29.2% and 39.6% and 26.7%
Curve of compound
  IC50: 1.77 µM and 2.7 µM and 1.53 µM

## CC1COCCN1c1cc(-c2ccnn2C)c2ccnc(-c3ccn[nH]3)c2n1 (stereo not given)
Compound 0.0316 µM
  viability, T/C: 80.3% and 71.6% and 81.9%
Compound 0.1 µM
  viability, T/C: 63.1% and 61.5% and 48.7%
Compound 0.316 µM
  viability, T/C: 47.8% and 50% and 45.2%
Compound 1 µM
  viability, T/C: 45% and 40.2% and 45.6%
Compound 3.16 µM
  viability, T/C: 63.9% and 81.7% and 45%
Compound 10 µM
  viability, T/C: 81.2% and 80.8% and 88.8%
